Data reported in patent US20150329512A1, “METHOD AND PHARMACEUTICAL COMPOSITION FOR TREATING LUNG CANCER” (National Dong Hua University, priority 2014, published 2015).

Assays:
A549 cells [1] = test: Cell cycle analysis by flow cytometer (PI staining); assay type: cell-based, human; details: for G0/G1 (%) / G2/M (%) / S (%) / Sub G1 (%): A549
Protocol: (§1) The results of Example 2 in cell viability hinted the effects of HCD, PG, and Dox on arresting cell cycle. In this example, the phase of cell cycle of A549 cells and Anti-Dox-A549 cells after the treatment listed in Table 1 was determined by flow cytometer. Briefly, 7×10^4 cells per well were to inoculated in 12-wells plate and incubated overnight at 37° C., 5% CO2. Then, cells were treated according to the treatment listed in Table 1 by indicated time period. After treatment, cells were harvested by trypsin and fixed with 70% ethanol at −20° C. for at least 3 hr. The cells were washed in cold PBS twice and then incubated with 1 ml (v/v) staining solution (20 μg/m1 propidium iodide (PI), 0.1% Triton X-100, 0.2 mg/ml Rnase) at 37° C. for 30 minutes. Lastly, cells were analyzed by flow cytometer (Cytomics™ FC500, Backman, Fullerton, Calif., USA). Data from 10,000 cells were collected for each experimental group.

Anti-Dox-A549 cells [2] = test: as above; assay type: cell-based, human; details: for G0/G1 (%) / G2/M (%) / S (%) / Sub G1 (%): Anti-Dox-A549
Protocol: as §1

A549 cells [3] = test: MTT assay, cell viability; assay type: cell-based, human
Protocol: (§2) A549 (lung cancer cell line, non-resistance) and Anti-Dox-A549 (lung cancer cell line with resistance to Doxorubicin) were maintained in DMEM supplemented with 10% fetal bovine serum (FBS, Gibco), pH 7.4, 37° C. and with continuous circulation of 5% CO2. The medium was changed every 2 days and the cells were trypsinized with trypsin/EDTA when reaching 80%-90% confluence.
(§3) A549 and Anti-Dox-A549 were treated by the following treatment (Table 1) for 24 or 48 hr for examining the effects of HCD, PG, and Dox on their viability.
(§4) Dox1is referred as Dox of 1 μM; Dox2.5 is referred as Dox of 2.5 μM; Dox5 is referred as Dox of 5 μM; Dox10 is referred as Dox of 10 μM; Dox100 is referred as Dox of 100 μM. HCD2.5 is referred as HCD of 2.5 μM; HCD10 is referred as HCD of 10 μM; HCD25 is referred as HCD of 25 μM; HCD50 is referred as HCD of 50 μM. PG2.5 is referred as PG of 2.5 μM; PG5 is referred as PG of 5 μM; PG10 is referred as PG of 10 μM; PG20 is referred as PG of 20 μM.
(§5) In this example, the effects of HCD, PG, and Dox on the viability of A549 and anti-Dox-A549 were examined. The MTT assay was employed for this purpose. The MTT (3-(4-,5-dimethylthiazol-2-yl)-2,5-diphenyltetrazolium bromide) assay is a common colorimetric method in the field for cell viability analysis. MTT (yellow tetrazolium salt) is reduced to a purple formazan by living cells and detection to the purple formazan can be calculated as the cell viability.
(§6) Briefly, cells (A549 or Anti-Dox-A549) were seeded in 96-well plate (7×10^3 cell per well) and incubated overnight (37° C., 5% CO2).

Anti-Dox-A549 cells [4] = test: MTT assay, cell viability; assay type: cell-based, human
Protocol: as §2, §3, §4, §5, §6

[5] = tested on: human lung cancer in lung of mice; test: Mouse model bearing human lung cancer in lung (A549 or Anti-Dox-A549 cells injected)
Protocol: The animal experiments were approved by the National Dong-Hwa University Animal Ethics Committee and the experimental protocols were used according to the “Guide for the Care and Use of Laboratory Animals” of National Dong-Hwa University. 1×10^7 of A549 cells or Anti-Dox-A549 cells were suspended in PBS to prepare cell suspensions. On day 0, C57/BL6 mice (6-8 weeks old, n=6) were weighted and anesthetic using pentobarbital (5 mg/ml). Then, the mice were injected with the cell suspension (1×10^7 cells per mouse) into the lung by IT. The injection was repeated every 7 days for 21 days. Another group of mice were injected with 10% EtOH as comparative group according to the same procedure set forth above.
After the establishment of human lung cancer in the experimental mice, the mice were maintained for one more week and then treated with HCD (0.0318 or 1.272 mg/kg body weight, in 10% ETOH with PBS), PG (0.1615 or 0.646 mg/kg body weight, in 10% ETOH with PBS) or 10% EtOH by IT injection (intrathecal injection) to the lung. The body weight was monitored every five days for thirty days. After thirty days, the mice were sacrificed and the lungs were checked for marker of human lung adenocarcinoma by H&E and IHC staining. The livers, kidneys and spleens of the mice were also examined to confirm the cytotoxicity of HCD and PG and to see if there was any metastasis happened.

[6] = pre-treatment (HCD especially 10 or 25 μM), then Dox 1 or 2.5 μM
[7] = mice treated by IT injection to the lung, after thirty days, data not shown

Structure (SMILES): CC1=CCCC2C1(C)CCC(C)C2(C)CCC1=CC(=O)OC1O (stereo not drawn) [HCD, 16-hydroxy-cleroda-3,13-dine-15,16-olide]
- cell cycle effect compared with the control group (A549 cells [1]; A549 cells, Tables 3 and 5): increased cell cycle arrest at G2/M phase
- cell cycle effect of pre-treatment and subsequent Dox (A549 cells [1]; A549 cells, Tables 9 and 11): increased sub G1 phase and arrested at G2/M phase
- G0/G1 (%) (A549 cells [1]; HCD 2.5 μM, 24 hr): 77.3 ± 0.9%
- G2/M (%) (A549 cells [1]; HCD 2.5 μM, 24 hr): 9.7 ± 0.9%
- S (%) (A549 cells [1]; HCD 2.5 μM, 24 hr): 9.6 ± 0.5%
- Sub G1 (%) (A549 cells [1]; HCD 2.5 μM, 24 hr): 1.0 ± 0.2%
- G0/G1 (%) (A549 cells [1]; HCD 2.5 μM, 36 hr): 74.4 ± 2.6 %
- G2/M (%) (A549 cells [1]; HCD 2.5 μM, 36 hr): 11.8 ± 0.9%
- S (%) (A549 cells [1]; HCD 2.5 μM, 36 hr): 9.5 ± 0.4 %
- Sub G1 (%) (A549 cells [1]; HCD 2.5 μM, 36 hr): 1.1 ± 0.1%
- G0/G1 (%) (A549 cells [1]; HCD 2.5 μM, 48 hr): 80.4 ± 0.2%
- G2/M (%) (A549 cells [1]; HCD 2.5 μM, 48 hr): 8.9 ± 0.1%
- S (%) (A549 cells [1]; HCD 2.5 μM, 48 hr): 6.9 ± 0.1%
- Sub G1 (%) (A549 cells [1]; HCD 2.5 μM, 48 hr): 1.8 ± 0.2%
- G0/G1 (%) (A549 cells [1]; HCD 10 μM, 24 hr): 85.6 ± 6.9 %
- G2/M (%) (A549 cells [1]; HCD 10 μM, 24 hr): 6.1 ± 0.5 %
- S (%) (A549 cells [1]; HCD 10 μM, 24 hr): 3.9 ± 2.8 %
- Sub G1 (%) (A549 cells [1]; HCD 10 μM, 24 hr): 1 ± 0.2%
- G0/G1 (%) (A549 cells [1]; HCD 10 μM, 36 hr): 75.4 ± 1.8%
- G2/M (%) (A549 cells [1]; HCD 10 μM, 36 hr): 10.0 ± 1.2%
- S (%) (A549 cells [1]; HCD 10 μM, 36 hr): 10.7 ± 0.4 %
- Sub G1 (%) (A549 cells [1]; HCD 10 μM, 36 hr): 1.4 ± 0.2%
- G0/G1 (%) (A549 cells [1]; HCD 10 μM, 48 hr): 75.6 ± 1.8%
- G2/M (%) (A549 cells [1]; HCD 10 μM, 48 hr): 11.2 ± 0.2 %
- S (%) (A549 cells [1]; HCD 10 μM, 48 hr): 8.7 ± 0.2%
- Sub G1 (%) (A549 cells [1]; HCD 10 μM, 48 hr): 1.8 ± 0.2%
- G0/G1 (%) (A549 cells [1]; HCD 25 μM, 24 hr): 62.9 ± 3.3%
- G2/M (%) (A549 cells [1]; HCD 25 μM, 24 hr): 22.8 ± 3.0 %
- S (%) (A549 cells [1]; HCD 25 μM, 24 hr): 11.1 ± 1.3%
- Sub G1 (%) (A549 cells [1]; HCD 25 μM, 24 hr): 1.5 ± 0.2%
- G0/G1 (%) (A549 cells [1]; HCD 25 μM, 36 hr): 62.3 ± 1.3 %
- G2/M (%) (A549 cells [1]; HCD 25 μM, 36 hr): 22.8 ± 1.5 %
- S (%) (A549 cells [1]; HCD 25 μM, 36 hr): 9.2 ± 0.7 %
- Sub G1 (%) (A549 cells [1]; HCD 25 μM, 36 hr): 2.7 ± 0.1 %
- G0/G1 (%) (A549 cells [1]; HCD 25 μM, 48 hr): 61.7 ± 1.2 %
- G2/M (%) (A549 cells [1]; HCD 25 μM, 48 hr): 22.7 ± 0.5 %
- S (%) (A549 cells [1]; HCD 25 μM, 48 hr): 7.9 ± 1.3%
- Sub G1 (%) (A549 cells [1]; HCD 25 μM, 48 hr): 1.9 ± 0.5 %
- cell cycle effect compared with the control group (Anti-Dox-A549 cells [2]; Anti-Dox-A549 cells, Tables 2 and 4): increased cell cycle arrest at G2/M phase
- cell cycle effect of pre-treatment and subsequent Dox (Anti-Dox-A549 cells [2]; Anti-Dox-A549 cells, Tables 8 and 10): increased sub G1 phase and arrested at G2/M phase
- G0/G1 (%) (Anti-Dox-A549 cells [2]; HCD 2.5 μM, 24 hr): 68.2 ± 2.8%
- G2/M (%) (Anti-Dox-A549 cells [2]; HCD 2.5 μM, 24 hr): 16.5 ± 1.8%
- S (%) (Anti-Dox-A549 cells [2]; HCD 2.5 μM, 24 hr): 12.1 ± 0.8%
- Sub G1 (%) (Anti-Dox-A549 cells [2]; HCD 2.5 μM, 24 hr): 0.63 ± 0.05%
- G0/G1 (%) (Anti-Dox-A549 cells [2]; HCD 2.5 μM, 36 hr): 80.3 ± 0.6%
- G2/M (%) (Anti-Dox-A549 cells [2]; HCD 2.5 μM, 36 hr): 9.6 ± 0.3%
- S (%) (Anti-Dox-A549 cells [2]; HCD 2.5 μM, 36 hr): 7.4 ± 0.2%
- Sub G1 (%) (Anti-Dox-A549 cells [2]; HCD 2.5 μM, 36 hr): 0.93 ± 0.2%
- G0/G1 (%) (Anti-Dox-A549 cells [2]; HCD 2.5 μM, 48 hr): 82.1 ± 0.7%
- G2/M (%) (Anti-Dox-A549 cells [2]; HCD 2.5 μM, 48 hr): 8.9 ± 0.7%
- S (%) (Anti-Dox-A549 cells [2]; HCD 2.5 μM, 48 hr): 6.1 ± 0.3%
- Sub G1 (%) (Anti-Dox-A549 cells [2]; HCD 2.5 μM, 48 hr): 1.56 ± 0.2%
- G0/G1 (%) (Anti-Dox-A549 cells [2]; HCD 10 μM, 24 hr): 83.6 ± 1.4 %
- G2/M (%) (Anti-Dox-A549 cells [2]; HCD 10 μM, 24 hr): 6.6 ± 0.55 %
- S (%) (Anti-Dox-A549 cells [2]; HCD 10 μM, 24 hr): 7.0 ± 0.6%
- Sub G1 (%) (Anti-Dox-A549 cells [2]; HCD 10 μM, 24 hr): 0.73 ± 0.05%
- G0/G1 (%) (Anti-Dox-A549 cells [2]; HCD 10 μM, 36 hr): 75.8 ± 0.3 %
- G2/M (%) (Anti-Dox-A549 cells [2]; HCD 10 μM, 36 hr): 11.8 ± 1.0 %
- S (%) (Anti-Dox-A549 cells [2]; HCD 10 μM, 36 hr): 9.2 ± 0.4 %
- Sub G1 (%) (Anti-Dox-A549 cells [2]; HCD 10 μM, 36 hr): 1 ± 0.2%
- G0/G1 (%) (Anti-Dox-A549 cells [2]; HCD 10 μM, 48 hr): 82.2 ± 0.7%
- G2/M (%) (Anti-Dox-A549 cells [2]; HCD 10 μM, 48 hr): 8.3 ± 0.2%
- S (%) (Anti-Dox-A549 cells [2]; HCD 10 μM, 48 hr): 6.4 ± 0.3%
- Sub G1 (%) (Anti-Dox-A549 cells [2]; HCD 10 μM, 48 hr): 1.76 ± 0.1%
- G0/G1 (%) (Anti-Dox-A549 cells [2]; HCD 25 μM, 24 hr): 70.5 ± 2.7%
- G2/M (%) (Anti-Dox-A549 cells [2]; HCD 25 μM, 24 hr): 19.3 ± 1.7 %
- S (%) (Anti-Dox-A549 cells [2]; HCD 25 μM, 24 hr): 7.9 ± 0.8 %
- Sub G1 (%) (Anti-Dox-A549 cells [2]; HCD 25 μM, 24 hr): 1.3 ± 0.1 %
- G0/G1 (%) (Anti-Dox-A549 cells [2]; HCD 25 μM, 36 hr): 73.9 ± 2.7 %
- G2/M (%) (Anti-Dox-A549 cells [2]; HCD 25 μM, 36 hr): 17.7 ± 1.9 %
- S (%) (Anti-Dox-A549 cells [2]; HCD 25 μM, 36 hr): 5.4 ± 0.9%
- Sub G1 (%) (Anti-Dox-A549 cells [2]; HCD 25 μM, 36 hr): 3.43 ± 0.2 %
- G0/G1 (%) (Anti-Dox-A549 cells [2]; HCD 25 μM, 48 hr): 3.73 ± 1.6 %
- G2/M (%) (Anti-Dox-A549 cells [2]; HCD 25 μM, 48 hr): 21.8 ± 2.4 %
- S (%) (Anti-Dox-A549 cells [2]; HCD 25 μM, 48 hr): 11.2 ± 1.3 %
- Sub G1 (%) (Anti-Dox-A549 cells [2]; HCD 25 μM, 48 hr): 27.2 ± 0.5 %
- IC50 (A549 cells [3]; 24 hr treatment): ~50 µM
- effect of pre-treatment on the effects of Dox on cell viability (A549 cells [3]; [6]): enhance the effects of Dox on viability
- IC50 (Anti-Dox-A549 cells [4]; 24 hr treatment): ~50 µM
- effect of pre-treatment on the effects of Dox on cell viability (Anti-Dox-A549 cells [4]; [6]): rescue the sensitivity of Anti-Dox-A549 cells to Dox
- H&E and IHC staining of the lung ([5]; HCD 0.0318 or 1.272 mg/kg, PG 0.1615 or 0.646 mg/kg body weight, IT injection to the lung, after thirty days): less cell invention around blood vessels 1 and less cell accumulation 2 around the trachea 4
- body weight of the experimental mice ([5]; HCD 0.0318 or 1.272 mg/kg, PG 0.1615 or 0.646 mg/kg body weight, IT injection to the lung, monitored every five days for thirty days): did not show significantly change
- injury of livers, kidneys and spleens (staining) [5, 7]: did not cause serious cytotoxicity
- metastasis in livers, kidneys and spleens [5, 7]: no metastasis happened
